Key:
BXPC-3 cells = experiment: MTT proliferation assay, BXPC-3; assay type: cell-based; details: 72 h
Description: BXPC-3 and PANC-1 cells were plated in 96-well plates at 5000 cells per well. After 12 h attachment, varying concentrations of 8a were added into the culture medium for 72 h. Then 10 μL MTT (5 mg/ml) solution was added into per well for 4 h at 37 °C. After removing medium, formazan crystals were dissolved in 150 µL DMSO. The cells viability was quantified by measuring the absorbance at 570 nm.

[1] = test system: H3K9 acetylation (SIRT6 substrate); experiment: H3K9 acetylation in Hela cells, western blot; assay type: cell-based
Description: Cells were harvested and lysed in a lysis buffer (solarbio, R0010) supplementing 1 mM PMSF and protease inhibitor (TargetMol, USA). […] Then, the membranes were detected by Tanon 5200 (Tanon, Beijing, China).
To investigate the SIRT6 activity at cellular levels, we examined the acetylation status of H3K9, which is a well-known SIRT6 substrate. […] As these compounds can show violet fluorescence, intracellular localizations of these compounds were evaluated by confocal microscopy.

SIRT1 = SIRT1 (Homo sapiens, UniProt Q96EB6); experiment: Deacetylation activity selectivity, SIRT1; assay type: biochemical
Sequence of SIRT1 (Q96EB6 whole entry, species assumed): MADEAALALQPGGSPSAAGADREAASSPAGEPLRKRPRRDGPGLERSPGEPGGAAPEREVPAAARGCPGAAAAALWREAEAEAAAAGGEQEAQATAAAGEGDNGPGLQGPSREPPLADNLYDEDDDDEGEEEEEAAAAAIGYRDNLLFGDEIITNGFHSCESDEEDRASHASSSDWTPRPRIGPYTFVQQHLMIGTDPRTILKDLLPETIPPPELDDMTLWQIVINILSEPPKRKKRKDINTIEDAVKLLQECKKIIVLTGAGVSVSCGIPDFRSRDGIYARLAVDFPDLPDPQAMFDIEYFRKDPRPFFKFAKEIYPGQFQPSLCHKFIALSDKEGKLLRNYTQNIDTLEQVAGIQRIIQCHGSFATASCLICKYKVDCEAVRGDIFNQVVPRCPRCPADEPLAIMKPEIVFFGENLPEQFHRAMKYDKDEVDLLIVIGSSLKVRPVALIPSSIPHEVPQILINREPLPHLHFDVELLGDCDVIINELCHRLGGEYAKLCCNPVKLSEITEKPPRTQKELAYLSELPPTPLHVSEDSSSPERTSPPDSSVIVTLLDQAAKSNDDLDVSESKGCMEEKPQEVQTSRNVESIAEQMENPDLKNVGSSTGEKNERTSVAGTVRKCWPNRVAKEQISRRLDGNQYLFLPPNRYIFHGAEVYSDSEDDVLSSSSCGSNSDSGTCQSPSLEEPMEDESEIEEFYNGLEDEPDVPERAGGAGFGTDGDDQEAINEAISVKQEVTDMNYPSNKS
Description: (§1) Fluor-De-Lys (FDL) assays were used for the examination of the deacetylation activities of sirtuins as described previously. For the detection of SIRT6 activity, the 50-μL reaction mixture contained 5 μM SIRT6, 2.5 mM NAD^+ (β-Nicotinamide adenine dinucleotide hydrate, Sigma, N1636), 75 μM RHKK-Ac-AMC (GL Biochem, Shanghai), compounds/DMSO, and assay buffer. The reactions were incubated at 37 °C for 2 h, added 50 μL stop solution (40 mM nicotinamide, 6 mg/mL trypsin) at 25 °C for 30 min. Fluorescence intensity was measured at an excitation wavelength of 360 nm and an emission wavelength of 460 nm. IC50 values were calculated in GraphPad Prism version 8.00.
(§2) Based on the above results, 8a was further investigated in this study. […] To further evaluate the selectivity of 8a for SIRT6, we examined the effect of 8a on the deacetylation activity of other HDAC family members, including HDAC1-HDAC11, SIRT1-SIRT3 and SIRT5. […] Furthermore, to confirm binding of 8a to SIRT6 in cells, we carried out the cellular thermal shift assay (CETSA). The CETSA approach builds on the thermal shift assay concept where ligand binding to its target protein enhances the target protein stability. We observed that the thermal stability of SIRT6 increased after 8a treatment (Figs. 2c, d).

HDAC8 = HDAC8 (Homo sapiens, UniProt Q9BY41); experiment: Deacetylation activity selectivity, HDAC8; assay type: biochemical
Sequence of HDAC8 (Q9BY41 whole entry, species assumed): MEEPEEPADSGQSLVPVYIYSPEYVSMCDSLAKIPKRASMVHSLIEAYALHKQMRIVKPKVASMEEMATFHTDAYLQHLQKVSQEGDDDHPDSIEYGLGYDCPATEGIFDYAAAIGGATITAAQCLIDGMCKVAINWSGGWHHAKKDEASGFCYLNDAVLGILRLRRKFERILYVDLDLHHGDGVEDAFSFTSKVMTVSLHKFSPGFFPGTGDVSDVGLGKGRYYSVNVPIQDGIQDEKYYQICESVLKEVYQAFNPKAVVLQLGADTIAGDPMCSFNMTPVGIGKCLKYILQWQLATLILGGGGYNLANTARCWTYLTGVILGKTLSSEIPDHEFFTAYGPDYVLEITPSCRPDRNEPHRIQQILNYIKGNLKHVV
Text: as §2

HDAC5 = HDAC5 (Homo sapiens, UniProt Q9UQL6); experiment: Deacetylation activity selectivity, HDAC5; assay type: biochemical
Sequence of HDAC5 (Q9UQL6 whole entry, species assumed): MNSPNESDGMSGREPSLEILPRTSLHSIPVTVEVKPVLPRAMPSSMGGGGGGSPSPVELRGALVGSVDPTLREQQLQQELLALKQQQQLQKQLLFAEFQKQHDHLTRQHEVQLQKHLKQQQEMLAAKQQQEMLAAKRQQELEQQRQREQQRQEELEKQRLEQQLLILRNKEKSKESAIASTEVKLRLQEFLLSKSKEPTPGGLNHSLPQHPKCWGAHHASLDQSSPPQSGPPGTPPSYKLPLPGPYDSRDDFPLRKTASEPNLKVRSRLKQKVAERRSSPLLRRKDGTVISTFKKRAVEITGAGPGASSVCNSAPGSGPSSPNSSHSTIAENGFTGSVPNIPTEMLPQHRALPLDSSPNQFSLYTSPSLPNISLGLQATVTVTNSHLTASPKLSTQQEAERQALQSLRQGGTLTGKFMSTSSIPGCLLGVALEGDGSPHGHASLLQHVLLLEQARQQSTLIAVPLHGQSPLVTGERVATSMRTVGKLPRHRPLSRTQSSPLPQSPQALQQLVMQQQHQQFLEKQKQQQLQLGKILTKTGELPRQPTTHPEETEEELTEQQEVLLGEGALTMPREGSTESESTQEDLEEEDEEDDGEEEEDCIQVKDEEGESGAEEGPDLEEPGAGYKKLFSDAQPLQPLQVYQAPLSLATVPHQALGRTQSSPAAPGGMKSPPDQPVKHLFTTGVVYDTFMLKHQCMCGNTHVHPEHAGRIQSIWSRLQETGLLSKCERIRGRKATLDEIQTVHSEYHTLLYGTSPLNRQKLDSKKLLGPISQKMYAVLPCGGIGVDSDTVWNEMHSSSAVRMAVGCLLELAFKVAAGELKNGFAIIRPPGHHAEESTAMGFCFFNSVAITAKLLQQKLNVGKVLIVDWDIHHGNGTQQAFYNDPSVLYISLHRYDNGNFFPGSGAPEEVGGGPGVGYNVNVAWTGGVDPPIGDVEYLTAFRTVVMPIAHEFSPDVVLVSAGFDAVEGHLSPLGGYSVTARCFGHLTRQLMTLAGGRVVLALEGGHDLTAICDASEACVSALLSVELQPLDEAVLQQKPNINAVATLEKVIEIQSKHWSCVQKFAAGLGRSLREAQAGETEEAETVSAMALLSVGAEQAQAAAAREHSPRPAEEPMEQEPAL
Text: as §2

[2] = target: T1, SIRT6 mutant (V70A and F86A) (Homo sapiens, UniProt Q8N6T7, F86A/V70A); experiment: FDL assay on SIRT6 mutant (V70A and F86A); assay type: biochemical
T1 construct: The human full-length SIRT6 gene was inserted into the prokaryotic expression vector (pET-28a (+)); inferred from the pET-28a(+) vector and Ni-NTA purification of the wild-type construct); made in house; host or cells: Escherichia coli BL21 (DE3) (inferred from the wild-type protocol)
T1 sequence (Q8N6T7 whole entry V70A/F86A): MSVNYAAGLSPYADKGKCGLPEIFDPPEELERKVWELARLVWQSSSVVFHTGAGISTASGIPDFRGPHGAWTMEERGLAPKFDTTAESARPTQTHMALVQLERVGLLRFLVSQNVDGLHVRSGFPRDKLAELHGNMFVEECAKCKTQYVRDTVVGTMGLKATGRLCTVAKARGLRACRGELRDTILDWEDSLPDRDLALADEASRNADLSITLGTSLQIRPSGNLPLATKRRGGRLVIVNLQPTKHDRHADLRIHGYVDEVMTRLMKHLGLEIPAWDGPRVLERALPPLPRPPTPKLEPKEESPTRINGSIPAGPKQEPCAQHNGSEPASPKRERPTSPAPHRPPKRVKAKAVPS
Description: as §1
To explore the interaction mechanism, we performed the molecular docking experiment between SIRT6 (PDB ID: 6QCJ) and 8a. […] 8a mainly formed hydrogen bond with the backbone amino group of D187 and the ribose hydroxyl group of the coenzyme NAD^+, and stabilized the whole system by hydrophobic interactions with key amino acids such as I8, V70, W71, F82 and F86 (Fig. 2g). To verify this binding model, the mutant (V70A and F86A) of SIRT6 was constructed by site mutation. […] Moreover, there were also some other potential binding pockets predicted by molecular docking (data not shown). Based on the prediction, we constructed other two SIRT6 mutants (E140A/R195A and T184A/S191A/P193A/E283A). […]

SIRT2 = SIRT2 (Homo sapiens, UniProt Q8IXJ6); experiment: Deacetylation activity selectivity, SIRT2; assay type: biochemical
Sequence of SIRT2 (Q8IXJ6 whole entry, species assumed): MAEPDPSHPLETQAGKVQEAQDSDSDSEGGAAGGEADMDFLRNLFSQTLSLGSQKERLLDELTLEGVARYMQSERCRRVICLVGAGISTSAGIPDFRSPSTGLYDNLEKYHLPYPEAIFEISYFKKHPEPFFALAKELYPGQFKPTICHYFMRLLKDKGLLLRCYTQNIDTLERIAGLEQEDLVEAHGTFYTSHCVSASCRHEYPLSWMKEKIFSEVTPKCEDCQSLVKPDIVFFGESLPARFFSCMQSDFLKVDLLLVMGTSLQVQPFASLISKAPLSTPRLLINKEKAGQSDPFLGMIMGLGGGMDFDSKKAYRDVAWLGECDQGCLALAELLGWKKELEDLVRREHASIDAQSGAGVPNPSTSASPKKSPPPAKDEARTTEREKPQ
Description: as §1, §2

HDAC4 = HDAC4 (Homo sapiens, UniProt P56524); experiment: Deacetylation activity selectivity, HDAC4; assay type: biochemical
Sequence of HDAC4 (P56524 whole entry, species assumed): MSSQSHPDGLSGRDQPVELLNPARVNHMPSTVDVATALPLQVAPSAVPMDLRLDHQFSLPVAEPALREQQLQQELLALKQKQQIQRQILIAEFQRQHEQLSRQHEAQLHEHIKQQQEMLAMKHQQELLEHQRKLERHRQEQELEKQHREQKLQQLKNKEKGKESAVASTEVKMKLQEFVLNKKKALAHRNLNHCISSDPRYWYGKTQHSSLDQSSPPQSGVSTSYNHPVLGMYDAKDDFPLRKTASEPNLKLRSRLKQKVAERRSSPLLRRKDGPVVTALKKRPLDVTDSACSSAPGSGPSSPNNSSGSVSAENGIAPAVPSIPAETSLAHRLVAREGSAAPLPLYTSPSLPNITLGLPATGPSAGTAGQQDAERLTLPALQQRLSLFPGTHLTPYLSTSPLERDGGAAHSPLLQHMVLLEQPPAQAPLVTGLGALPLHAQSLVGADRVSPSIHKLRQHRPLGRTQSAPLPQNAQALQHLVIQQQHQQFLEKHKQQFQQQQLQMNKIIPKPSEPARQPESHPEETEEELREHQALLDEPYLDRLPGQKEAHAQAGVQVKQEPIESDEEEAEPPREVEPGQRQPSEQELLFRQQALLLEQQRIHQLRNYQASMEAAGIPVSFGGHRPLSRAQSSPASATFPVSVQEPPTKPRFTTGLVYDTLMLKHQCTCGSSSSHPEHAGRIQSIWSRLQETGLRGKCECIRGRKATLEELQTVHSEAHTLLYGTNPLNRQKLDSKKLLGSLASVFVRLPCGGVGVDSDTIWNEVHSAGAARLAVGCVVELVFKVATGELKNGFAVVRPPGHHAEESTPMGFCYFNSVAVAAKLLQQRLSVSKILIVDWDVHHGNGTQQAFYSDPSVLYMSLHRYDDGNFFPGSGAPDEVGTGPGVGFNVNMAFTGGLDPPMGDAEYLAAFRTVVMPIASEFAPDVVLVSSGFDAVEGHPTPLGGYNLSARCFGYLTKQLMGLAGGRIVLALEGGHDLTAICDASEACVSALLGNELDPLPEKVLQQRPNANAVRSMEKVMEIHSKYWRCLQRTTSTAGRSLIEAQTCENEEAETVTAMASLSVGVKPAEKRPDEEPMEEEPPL
Text: as §2

HDAC1 = HDAC1 (Homo sapiens, UniProt Q13547); experiment: Deacetylation activity selectivity, HDAC1; assay type: biochemical
Sequence of HDAC1 (Q13547 whole entry, species assumed): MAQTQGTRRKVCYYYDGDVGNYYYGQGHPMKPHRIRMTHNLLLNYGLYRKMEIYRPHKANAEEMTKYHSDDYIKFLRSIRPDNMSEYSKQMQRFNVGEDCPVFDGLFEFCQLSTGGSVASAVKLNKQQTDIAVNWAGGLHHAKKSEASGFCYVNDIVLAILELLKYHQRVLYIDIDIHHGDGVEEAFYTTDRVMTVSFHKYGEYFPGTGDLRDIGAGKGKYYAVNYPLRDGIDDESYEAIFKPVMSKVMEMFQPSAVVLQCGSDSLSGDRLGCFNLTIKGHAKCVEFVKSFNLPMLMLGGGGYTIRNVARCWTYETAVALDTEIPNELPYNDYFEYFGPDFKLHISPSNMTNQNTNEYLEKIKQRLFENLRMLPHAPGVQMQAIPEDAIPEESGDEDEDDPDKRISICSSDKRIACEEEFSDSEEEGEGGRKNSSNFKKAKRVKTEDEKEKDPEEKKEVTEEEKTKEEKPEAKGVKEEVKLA
Text: as §2

SIRT5 = SIRT5 (Homo sapiens, UniProt Q9NXA8); experiment: Deacetylation activity selectivity, SIRT5; assay type: biochemical
Description: as §1, §2

HDAC11 = HDAC11 (Homo sapiens, UniProt Q96DB2); experiment: Deacetylation activity selectivity, HDAC11; assay type: biochemical
Sequence of HDAC11 (Q96DB2 whole entry, species assumed): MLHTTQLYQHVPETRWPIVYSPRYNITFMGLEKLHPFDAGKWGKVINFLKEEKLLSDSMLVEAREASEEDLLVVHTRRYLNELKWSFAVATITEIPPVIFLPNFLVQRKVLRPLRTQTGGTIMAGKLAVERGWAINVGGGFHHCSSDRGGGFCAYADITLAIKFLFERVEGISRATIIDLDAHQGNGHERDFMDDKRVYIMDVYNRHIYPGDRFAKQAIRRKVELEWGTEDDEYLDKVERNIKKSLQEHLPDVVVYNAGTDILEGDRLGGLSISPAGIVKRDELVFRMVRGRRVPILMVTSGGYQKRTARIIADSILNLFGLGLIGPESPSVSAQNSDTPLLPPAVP
Text: as §2

IC50 (BXPC-3 cells): 7.56 µM | IC50 (SIRT1): 80.5 ± 1.91 µM | IC50 (HDAC8): 102 ± 2.01 µM | IC50 (HDAC5): > 200 µM | IC50 ([2]; FDL assay): 79 ± 9 µM | increase of IC50 to the mutant (V70A and F86A) ([2]; versus wild-type SIRT6): approximately 10 fold | IC50 (SIRT2): 92.2 ± 1.95 µM | IC50 (HDAC4): > 200 µM | IC50 (HDAC1): > 200 µM | IC50 (SIRT5): > 200 µM | IC50 (HDAC11): > 200 µM
SMILES: Br.CN(C)C(SCCCCCCn1cnc2c(-c3cc(Br)c(Br)[nH]3)nccc21)=[N+](C)C.[Cl-] [Compound 8a]
acetylation levels of H3K9 [1]: significantly increased
